Measurements: patent US20240041042A1, “1-(PYRIDYL)-5-AZINYLPYRAZOLE DERIVATIVES, AND THEIR USE FOR CONTROL OF UNDESIRED PLANT GROWTH” (Bayer Aktiengesellschaft, priority 2020, published 2024)

Key:
Type in all cases: in vivo
[1] = test system: Abutilon theophrasti (ABUTH); assay: Pre-emergence herbicidal action against ABUTH; conditions: Dosage column 320 g/ha (title prints 3200 g/ha); scored visually after about 3 weeks; 100% = plants have died
How it was run: (§1)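 Read-out is visual percent damage relative to untreated pots, with 100% meaning dead plants and 0% meaning no difference, assessed roughly three weeks after treatment. Compounds were applied pre-emergence to the covering soil at up to 320 g/ha.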

[2] = test system: Alopecurus myosuroides (ALOMY); assay: Pre-emergence herbicidal action against ALOMY; conditions: scored visually after about 3 weeks, 100% = plants have died
How it was run: as §1

[3] = test system: Amaranthus retroflexus (AMARE); assay: Pre-emergence herbicidal action against AMARE; conditions: visual scoring after about 3 weeks vs untreated controls
How it was run: as §1

Avena fatua (AVEFA) [4] = assay: Pre-emergence herbicidal action against AVEFA; conditions: 320 g/ha, visual scoring after about 3 weeks vs untreated controls
How it was run: as §1

[5] = test system: Echinochloa crus-galli (ECHCG); assay: Pre-emergence herbicidal action against ECHCG
How it was run: as §1

Lolium rigidum (LOLRI) [6] = assay: Pre-emergence herbicidal action against LOLRI
How it was run: as §1

[7] = test system: Matricaria inodora (MATIN); assay: Pre-emergence herbicidal action against MATIN
How it was run: as §1

[8] = test system: Pharbitis purpurea (PHBPU); assay: Pre-emergence herbicidal action against PHBPU
How it was run: as §1

[9] = test system: Polygonum convolvulus (POLCO); assay: Pre-emergence herbicidal action against POLCO
How it was run: as §1

Setaria viridis (SETVI) [10] = assay: Pre-emergence herbicidal action against SETVI
How it was run: as §1

[11] = test system: Verconica persica (VERPE); assay: Pre-emergence herbicidal action against VERPE; conditions: dosage 320 g/ha
How it was run: as §1

Viola tricolor (VIOTR) [12] = assay: Pre-emergence herbicidal action against VIOTR
How it was run: as §1

[13] = test system: Alopecurus myosuroides (ALOMY); assay: Post-emergence herbicidal action against ALOMY; conditions: 320 g/ha, visual rating about 3 weeks after treatment vs untreated controls (100% = plants have died, 0% = like control plants)
How it was run: (§2)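 Greenhouse plants sprayed at the one-leaf stage, 2–3 weeks after sowing, with WP or EC formulations plus 0.5% additive at 600 l/ha water. Activity rated visually after about 3 weeks versus untreated controls (100% = dead, 0% = like control), at 320 g/ha or lower.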

[14] = test system: Amaranthus retroflexus (AMARE); assay: Post-emergence herbicidal action against AMARE
How it was run: as §2

Avena fatua (AVEFA) [15] = assay: Post-emergence herbicidal action against AVEFA; conditions: visual rating about 3 weeks after treatment
How it was run: as §2

[16] = test system: Echinochloa crus-galli (ECHCG); assay: Post-emergence herbicidal action against ECHCG
How it was run: as §2

Lolium rigidum (LOLRI) [17] = assay: Post-emergence herbicidal action against LOLRI; conditions: dosage 320 g/ha
How it was run: as §2

[18] = test system: Matricaria inodora (MATIN); assay: Post-emergence herbicidal action against MATIN; conditions: dosage 320 g/ha
How it was run: as §2

[19] = test system: Pharbitis purpurea (PHBPU); assay: Post-emergence herbicidal action against PHBPU
How it was run: as §2

[20] = test system: Polygonum convolvulus (POLCO); assay: Post-emergence herbicidal action against POLCO
How it was run: as §2

Setaria viridis (SETVI) [21] = assay: Post-emergence herbicidal action against SETVI
How it was run: as §2

[22] = test system: Verconica persica (VERPE); assay: Post-emergence herbicidal action against VERPE
How it was run: as §2

Viola tricolor (VIOTR) [23] = assay: Post-emergence herbicidal action against VIOTR
How it was run: as §2

Zea mays (ZEAMX) = conditions: crop plant compatibility, 80 g/ha, effect vs untreated controls
How it was run: (§3)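 Foliar application at the one-leaf stage: WP/EC formulation, 0.5% additive, 600 l/ha water. Greenhouse-grown in sandy loam. Endpoint is visual % injury relative to untreated controls at about 3 weeks.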

Oryza sativa (ORYSA) = conditions: crop plant compatibility, 80 g/ha, effect in comparison to untreated controls
How it was run: as §3

| SMILES | Pre-emergence action against ABUTH [1] [%] | Pre-emergence action against ALOMY ([2]; 320 g/ha) [%] | Pre-emergence action against AMARE in % ([3]; 80 g/ha) [%] | Pre-emergence action against AMARE in % ([3]; 320 g/ha) [%] | Pre-emergence action against AVEFA in % (Avena fatua (AVEFA) [4]) [%] | Pre-emergence action against ECHCG in % ([5]; dosage 320 g/ha) [%] | Pre-emergence action against LOLRI in % (Lolium rigidum (LOLRI) [6]; dosage 80 g/ha) [%] | Pre-emergence action against LOLRI in % (Lolium rigidum (LOLRI) [6]; dosage 320 g/ha) [%] | Pre-emergence action against MATIN in % ([7]; dosage 320 g/ha) [%] | Pre-emergence action against PHBPU in % ([8]; dosage 320 g/ha) [%] | Pre-emergence action against POLCO in % ([9]; dosage 80 g/ha) [%] | Pre-emergence action against POLCO in % ([9]; dosage 320 g/ha) [%] | Pre-emergence action against SETVI in % (Setaria viridis (SETVI) [10]; dosage 320 g/ha) [%] | Pre-emergence action against VERPE in % [11] [%] | Pre-emergence action against VIOTR in % (Viola tricolor (VIOTR) [12]; 320 g/ha, Viola tricolor) [%] | Pre-emergence action against VIOTR in % (Viola tricolor (VIOTR) [12]; dosage 80 g/ha) [%] | Post-emergence action against ALOMY in % [13] [%] | Post-emergence action against AVEFA in % (Avena fatua (AVEFA) [15]; 320 g/ha) [%] | Post-emergence action against ECHCG in % ([16]; dosage 80 g/ha) [%] | Post-emergence action against ECHCG in % ([16]; dosage 320 g/ha) [%] | further results |
| --- | --- | --- | --- | --- | --- | --- | --- | --- | --- | --- | --- | --- | --- | --- | --- | --- | --- | --- | --- | --- | --- |
| Cc1cccnc1-n1nc(OCC(=O)O)c(Br)c1-c1ccc(F)nc1 [Example I-324] | 80 | 100 | 100 | 100 | 100 | 100 | 100 | 100 | 90 | 90 | 90 | 100 | 100 | 100 | 100 | 100 | 100 | 100 | 90 | 90 | Pre-emergence action against ALOMY ([2]; 80 g/ha): 100%; Post-emergence action against AMARE in % ([14]; 80 g/ha, visual rating about 3 weeks after treatment vs untreated controls (100% = plants have died, 0% = like control plants)): 90%; Post-emergence action against AMARE in % ([14]; 320 g/ha, visual rating about 3 weeks after treatment): 90%; Post-emergence action against AVEFA in % (Avena fatua (AVEFA) [15]; 80 g/ha): 100%; Post-emergence action against LOLRI in % (Lolium rigidum (LOLRI) [17]): 90%; Post-emergence action against MATIN in % [18]: 80%; Post-emergence action against PHBPU in % ([19]; dosage 320 g/ha): 90%; Post-emergence action against POLCO in % ([20]; dosage 80 g/ha): 80%; Post-emergence action against POLCO in % ([20]; dosage 320 g/ha): 80%; Post-emergence action against SETVI in % (Setaria viridis (SETVI) [21]; dosage 80 g/ha): 80%; Post-emergence action against SETVI in % (Setaria viridis (SETVI) [21]; dosage 320 g/ha): 90%; Post-emergence action against VERPE in % ([22]; 320 g/ha, VERPE): 90%; Post-emergence action against VERPE in % ([22]; dosage 80 g/ha): 90%; Post-emergence action against VIOTR in % (Viola tricolor (VIOTR) [23]; 80 g/ha): 80%; Post-emergence action against VIOTR in % (Viola tricolor (VIOTR) [23]; 320 g/ha): 80%; Post-emergence action against ZEAMX in % (Zea mays (ZEAMX)): 0% |
| C[C@@H](Oc1nn(-c2nc(F)ccc2F)c(-c2cncc(F)c2)c1Br)C(=O)O [Example I-155] | 90 | 100 | 90 | 100 | 90 | 100 | 90 | 100 | 90 | 90 | 90 | 90 | 100 | 100 | 100 | 100 | 80 | 80 | 80 | 80 | Pre-emergence action against ECHCG in % ([5]; dosage 80 g/ha): 90%; Pre-emergence action against MATIN in % ([7]; dosage 80 g/ha): 90%; Pre-emergence action against PHBPU in % ([8]; dosage 80 g/ha): 90%; Pre-emergence action against SETVI in % (Setaria viridis (SETVI) [10]; dosage 80 g/ha): 80%; Post-emergence action against LOLRI in % (Lolium rigidum (LOLRI) [17]): 80%; Post-emergence action against MATIN in % [18]: 80%; Post-emergence action against PHBPU in % ([19]; dosage 80 g/ha): 80%; Post-emergence action against PHBPU in % ([19]; dosage 320 g/ha): 90%; Post-emergence action against SETVI in % (Setaria viridis (SETVI) [21]; dosage 80 g/ha): 80%; Post-emergence action against SETVI in % (Setaria viridis (SETVI) [21]; dosage 320 g/ha): 90%; Post-emergence action against VERPE in % ([22]; 320 g/ha, VERPE): 80%; Post-emergence action against VERPE in % ([22]; dosage 80 g/ha): 80%; Post-emergence action against VIOTR in % (Viola tricolor (VIOTR) [23]; 80 g/ha): 80%; Post-emergence action against VIOTR in % (Viola tricolor (VIOTR) [23]; 320 g/ha): 80%; Post-emergence action against ORYSA in % (Oryza sativa (ORYSA)): 10% |
